Test systems include OVCAR-3 ovarian; EKVX NSCLC; NCI-H522 lung; IGROV1 ovarian; SNB-75 CNS; MCF7 breast; CAKI-1 renal; UACC-257 melanoma; NCI-H226 lung; HCC-2998 colon.
Common to all, as to test: NCI-60 cell line screen, 48 h

Where “and” joins values, the source holds several entries; their conditions need not be identical. Identical values can stand only once.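 Five compound concentrations were applied to cells in 96-well plates for 48 hours; endpoints were derived by simple linear interpolation of the resulting dose-response curve. TGI is the concentration that stops growth completely.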 Where a SMILES comes first, the peptide text is derived from it. [ ]: non-standard residue; d: D form. The star is where a group is joined. Cbz = O=C(OCc1ccccc1)*; Boc = CC(C)(C)OC(=O)*; Aib = CC(C)(N)C(=O)O; OBn = c1ccc(CO*)cc1; OtBu = CC(C)(C)O*; βAla = NCCC(=O)O

Consider `CC[N+](C)(CC)CCN1C(=O)c2ccccc2S1(=O)=O`, for which the TGI with OVCAR-3 ovarian, with EKVX NSCLC, with NCI-H522 lung, in the assay with IGROV1 ovarian, with SNB-75 CNS and in the assay with MCF7 breast was greater than 100 µM throughout. The TGI with CAKI-1 renal, in the assay on UACC-257 melanoma and with NCI-H226 lung was greater than 100 µM each time.

On to `C=C1C[C@]23C[C@@]1(O)CC[C@H]2[C@@]12C=C[C@H](O)[C@@](C)(C(=O)O1)[C@H]2[C@@H]3C(=O)O`, for which the TGI in the assay with OVCAR-3 ovarian, in the assay with EKVX NSCLC, with NCI-H522 lung, with IGROV1 ovarian, in the assay on SNB-75 CNS and with CAKI-1 renal was greater than 100 µM in each case. In addition, the TGI in the assay on UACC-257 melanoma, with NCI-H226 lung and with HCC-2998 colon was greater than 100 µM throughout.

Consider `NC(=O)CC(Nc1ncc2c(n1)-c1ccccc1OC2)C(=O)O` (stereo not given), for which the TGI with OVCAR-3 ovarian, in the assay with EKVX NSCLC, with NCI-H522 lung, in the assay on IGROV1 ovarian, in the assay with SNB-75 CNS and with MCF7 breast was greater than 100 µM each time. The TGI with CAKI-1 renal, with UACC-257 melanoma and in the assay with NCI-H226 lung was greater than 100 µM in each case.

`O=C(/C=C/c1ccc([N+](=O)[O-])cc1)c1nc2ccccc2[nH]1`: the TGI is greater than 78.1 µM with OVCAR-3 ovarian; greater than 100 µM in the assay on EKVX NSCLC; greater than 100 µM with NCI-H522 lung; 17.9 µM in the assay on IGROV1 ovarian; greater than 100 µM with SNB-75 CNS; greater than 100 µM in the assay with MCF7 breast. Besides, the TGI in the assay with CAKI-1 renal is greater than 100 µM; in the assay on UACC-257 melanoma, 31.4 µM; in the assay with NCI-H226 lung it was 4.39 µM.

Regarding `CC(C)n1c(=O)n(-c2ccccc2)n(C(C)(C)C)c1=O`, the TGI in the assay with OVCAR-3 ovarian, with EKVX NSCLC, in the assay on IGROV1 ovarian, with SNB-75 CNS, with MCF7 breast and with CAKI-1 renal was greater than 100 µM each time. The TGI in the assay with UACC-257 melanoma, in the assay on NCI-H226 lung and with HCC-2998 colon was greater than 100 µM throughout.

Regarding `CSC1SCC2C(=O)N(C)C3(CC3C)C(=O)OCC(NC(=O)c3nc4ccccc4cc3O)C(=O)NC(C)C(=O)N(C)C1C(=O)N(C)C1(CC1C)C(=O)OCC(NC(=O)c1nc3ccccc3cc1O)C(=O)NC(C)C(=O)N2C` (stereo not given), the TGI in the assay with OVCAR-3 ovarian is less than 0.0001 µM; with EKVX NSCLC, 0.648 µM and 0.0992 µM; in the assay on IGROV1 ovarian, 0.281 µM; in the assay with SNB-75 CNS, less than 0.0001 µM; in the assay on MCF7 breast it was 10.3 µM; in the assay on CAKI-1 renal, 0.0135 µM. Besides, the TGI with UACC-257 melanoma, in the assay on NCI-H226 lung and in the assay on HCC-2998 colon was less than 0.0001 µM in each case.

Take `CC(C)(C)OC(=O)CC(NC(=O)OC(C)(C)C)C(=O)NC(CCCCNC(=O)OCc1ccccc1)C(=O)NC(C)(C)C(=O)NCCC(=O)OCc1ccccc1` (stereo not given) (Boc-D(OtBu)K(Cbz)[Aib][βAla]-OBn; configuration not given here): the TGI in the assay with OVCAR-3 ovarian, in the assay on EKVX NSCLC, in the assay with NCI-H522 lung, with IGROV1 ovarian, with SNB-75 CNS and in the assay on MCF7 breast was greater than 100 µM throughout. The TGI in the assay on CAKI-1 renal and in the assay with NCI-H226 lung was greater than 100 µM in each case.

Consider `NC(CCCCNC(=O)OCc1ccccc1)C(=O)NC(CCCCNC(=O)OCc1ccccc1)C(=O)ON1C(=O)CCC1=O` (stereo not given), for which the TGI with EKVX NSCLC, in the assay with IGROV1 ovarian, with SNB-75 CNS, in the assay on MCF7 breast, with UACC-257 melanoma and with NCI-H226 lung was greater than 100 µM in each case. For the same compound, in the assay on HCC-2998 colon, the TGI is greater than 100 µM.

On to `CCOC(=O)c1cn(-c2ccc(Cl)cc2)c(=O)n2c1nc1ccccc12`, for which the TGI in the assay with OVCAR-3 ovarian, in the assay on EKVX NSCLC, in the assay with IGROV1 ovarian, in the assay with SNB-75 CNS, with MCF7 breast and with CAKI-1 renal was greater than 100 µM in each case. For the same compound, the TGI in the assay with UACC-257 melanoma, with NCI-H226 lung and with HCC-2998 colon was greater than 100 µM throughout.

Regarding `COc1cc(C2C3=C(COC3=O)OC(C)(C)Oc3cc4c(cc32)OCO4)cc(OC)c1OC` (stereo not given), the TGI in the assay on EKVX NSCLC is greater than 100 µM; in the assay on NCI-H522 lung it was 30.1 µM; with IGROV1 ovarian, greater than 100 µM; with MCF7 breast, greater than 100 µM; in the assay on CAKI-1 renal, greater than 100 µM; in the assay with UACC-257 melanoma it was greater than 100 µM. Further, the TGI in the assay with NCI-H226 lung and with HCC-2998 colon was greater than 100 µM in each case.

`COS(=O)c1cc(Cl)cc(Cl)c1O` (stereo not given): the TGI in the assay on OVCAR-3 ovarian is greater than 100 µM; with EKVX NSCLC, greater than 100 µM; in the assay with NCI-H522 lung, 36.3 µM; in the assay on SNB-75 CNS it was greater than 100 µM; in the assay with UACC-257 melanoma, greater than 100 µM; in the assay with HCC-2998 colon, greater than 100 µM.

For the compound `CSc1nncc(-c2cc3c(c(SC)n2)CCC3)n1`, the TGI in the assay on OVCAR-3 ovarian is greater than 100 µM; with EKVX NSCLC it was greater than 100 µM; with NCI-H522 lung it was greater than 100 µM; with IGROV1 ovarian it was 10.1 µM; in the assay on SNB-75 CNS, greater than 100 µM; in the assay on CAKI-1 renal, greater than 100 µM. Further, the TGI in the assay on UACC-257 melanoma and in the assay with NCI-H226 lung was greater than 100 µM in each case.

`O=C1[C@@H]2Cc3c([nH]c4ccccc34)C(C3CCCCC3)N2C(=O)[C@@H]2CCCN12` (stereo not given in full): the TGI in the assay with OVCAR-3 ovarian is 51.7 µM; with EKVX NSCLC, greater than 100 µM; with NCI-H522 lung, 63.1 µM; with IGROV1 ovarian, greater than 100 µM; in the assay with MCF7 breast it was greater than 100 µM; in the assay with CAKI-1 renal it was 80.8 µM. Further, the TGI with UACC-257 melanoma was 80.7 µM; with NCI-H226 lung, greater than 100 µM.

For `CCOC(=O)C(C(=O)Cc1ccccc1)c1ccccc1` (stereo not given), the TGI in the assay with OVCAR-3 ovarian, in the assay with EKVX NSCLC, in the assay with NCI-H522 lung, with IGROV1 ovarian, with SNB-75 CNS and in the assay with CAKI-1 renal was greater than 100 µM throughout. The TGI in the assay on UACC-257 melanoma and in the assay on NCI-H226 lung was greater than 100 µM in each case.

Consider `CSc1ncc2c(n1)-c1ccccc1OC2N1CCCC1` (stereo not given), for which the TGI in the assay with OVCAR-3 ovarian, in the assay with EKVX NSCLC, in the assay with NCI-H522 lung, with IGROV1 ovarian, with SNB-75 CNS and in the assay with MCF7 breast was greater than 100 µM in each case. Also, the TGI with CAKI-1 renal was 83.4 µM; in the assay with UACC-257 melanoma it was greater than 100 µM; in the assay on NCI-H226 lung, greater than 100 µM.

The values above are taken from PubChem BioAssay (NCI).
